Measured values as given in patent US20200055817A1 (AbbVie Deutschland GmbH & Co. KG, priority 2016, published 2020).

Legend:
Assay type in all cases: cell-based
[1] = target: T1, human EDG1 (S1PR1) receptor (Homo sapiens, UniProt P21453); assay: Aequorin assay, agonist potency, CHO-A21-Edg1#17 cells; conditions: agonist mode, aequorin luminescence; read-out: S1P1 EC50
T1 construct: expressed in transfected cells; host or cells: CHO-A21-Edg1#17 (CHO clone co-expressing mitochondrial aequorin and chimaeric Gaqi5)
T1 sequence (P21453 whole entry): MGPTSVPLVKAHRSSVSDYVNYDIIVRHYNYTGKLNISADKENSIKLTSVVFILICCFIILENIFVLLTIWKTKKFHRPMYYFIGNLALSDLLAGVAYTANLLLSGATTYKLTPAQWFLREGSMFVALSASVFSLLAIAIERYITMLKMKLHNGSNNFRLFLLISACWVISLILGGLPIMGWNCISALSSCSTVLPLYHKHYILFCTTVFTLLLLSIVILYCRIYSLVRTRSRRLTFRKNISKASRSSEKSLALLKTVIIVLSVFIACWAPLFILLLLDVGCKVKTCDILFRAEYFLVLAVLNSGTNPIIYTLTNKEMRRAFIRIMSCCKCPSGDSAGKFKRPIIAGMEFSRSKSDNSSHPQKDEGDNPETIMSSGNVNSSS
Description: (§1) Agonistic activity was measured as described below.
(§2) Cell clone CHO-A21-Edg1#17 carries the transgenes human EDG1 (S1PR1) receptor (Accession number NP_001391.2), mitochondrially targeted Aequorin (active part corresponds to accession number 1SL8_A) and chimaeric Gaqi5=Gaq modified with the 5 C-terminal amino-acids replaced with those of the Gai protein (DCGLF). CHO-A2-S1P3 Mix is a cell pool ectopically expressing human EDG3 (S1PR3) receptor (Accession number NP_005217.2) mitochondrially targeted Aequorin (active part has a sequence similar to accession number AY601106.1) and GNA16 (Accession number NP_002059.3). Cell clone CHO-A21-EDG8#12 carries the transgenes human EDG8 (S1PR5) receptor (Acession number NP_110387.1), mitochondrially expressed Aequorin (active part corresponds to accession number 1SL8_A) and chimaeric Gaqi5 (Gaq modified to present the 5 last amino-acids of the Gai protein “DCGLF”; see above). Cells are grown to mid-log phase in culture medium (HAM's F12, 10% FBS, 100 IU/mL penicillin, 100 μg/mL streptomycin, 250 μg/mL Zeocin, 400 μg/mL G418). 18 hours prior to frozen cells preparation, the medium is changed to remove the antibiotics.
(§3) 18 hours prior to the test, vials of frozen cells are quickly thawed in a 37° C. water bath, cells are recovered by centrifugation and resuspended in assay buffer (DMEM/HAM's F12 with HEPES, without phenol red+0.1% fatty acid-free BSA). Cells are gently agitated in suspension overnight at RT in presence of 5 μM of Coelenterazine h (Molecular Probes). On the day of the test, cells are diluted to their final working concentrations in assay buffer and agitated in suspension for 1 h at RT. Cells are then placed in the luminescence reader (Hamamatsu Functional Drug Screening System 6000, FDSS6000). During cells incubation, compounds are prepared in 100% DMSO, and subsequently diluted in assay buffer. Compounds are then dispensed in the assay plate (black, clear-bottom, 384-well plate). After binding of agonists to the human S1P receptor the intracellular calcium concentration increases and binding of calcium to the Aequorin/Coelenterazine complex leads to an oxidation reaction of coelenterazine, which results in the production of Aequorin, coelenteramide, CO2 and light (Dmax 469 nm). The luminescent response is dependent on the agonist concentration. For agonist testing, 30 μL of cell suspension are injected on 30 μL of test compound or reference agonist in the assay plate. The resulting emission of light is recorded for 90 seconds using the FDSS6000. Dose response curves with the reference compounds are performed before testing the compounds. S1P is the reference agonist and JTE-013 the reference antagonist for S1P2.
(§4) Luminescence data are integrated over the reading interval for agonist and antagonist modes. To standardize the emission of recorded light (determination of the “100% signal”) across plates and across different experiments, some of the wells contain 100 μM digitonin or a saturating concentration of ATP (20 μM). Plates also contain the reference agonist at a concentration equivalent to the EC80 obtained during the test validation and the EC100. Dose-response data from test compounds were analyzed with XLfit (IDBS) software using nonlinear regression applied to a sigmoidal dose-response model and the following equation: […]

[2] = target: T2, human EDG8 (S1PR5) receptor (Homo sapiens, UniProt Q9H228); assay: Aequorin assay, agonist potency, CHO-A21-EDG8#12 cells; conditions: agonist mode, aequorin luminescence; read-out: S1P5 EC50 range #
T2 construct: carries the transgenes human EDG8 (S1PR5) receptor (Acession number NP_110387.1); expressed in transfected cells; host or cells: CHO-A21-EDG8#12 (CHO clone co-expressing mitochondrial aequorin and chimaeric Gaqi5)
T2 sequence (Q9H228 whole entry): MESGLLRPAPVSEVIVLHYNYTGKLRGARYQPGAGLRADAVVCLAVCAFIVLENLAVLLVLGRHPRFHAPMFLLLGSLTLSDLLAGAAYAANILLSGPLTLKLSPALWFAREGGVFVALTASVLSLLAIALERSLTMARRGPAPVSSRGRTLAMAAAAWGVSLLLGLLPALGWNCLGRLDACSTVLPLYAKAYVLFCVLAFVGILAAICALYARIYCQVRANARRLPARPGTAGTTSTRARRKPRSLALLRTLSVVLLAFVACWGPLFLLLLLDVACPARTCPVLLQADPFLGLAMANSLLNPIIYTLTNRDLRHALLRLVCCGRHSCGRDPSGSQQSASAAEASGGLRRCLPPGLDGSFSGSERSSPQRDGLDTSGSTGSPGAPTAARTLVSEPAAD
Description: as §1, §2, §3, §4

S1P4 = target: T3, S1P4 (Homo sapiens, UniProt O95977); assay: Aequorin assay, agonist potency, S1P4; conditions: agonist mode, aequorin luminescence
T3 sequence (O95977 1-384): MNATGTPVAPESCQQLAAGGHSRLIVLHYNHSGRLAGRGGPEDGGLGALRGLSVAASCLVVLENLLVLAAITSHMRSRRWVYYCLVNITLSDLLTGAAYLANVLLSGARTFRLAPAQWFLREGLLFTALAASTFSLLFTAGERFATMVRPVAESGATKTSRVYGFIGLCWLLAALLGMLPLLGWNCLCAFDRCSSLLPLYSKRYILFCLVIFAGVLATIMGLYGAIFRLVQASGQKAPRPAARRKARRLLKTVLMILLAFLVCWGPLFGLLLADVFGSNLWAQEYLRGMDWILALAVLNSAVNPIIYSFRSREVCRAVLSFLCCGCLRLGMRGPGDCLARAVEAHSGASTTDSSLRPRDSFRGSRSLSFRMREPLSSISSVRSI
Description: as §1, §3, §4

| SMILES | EC50 [1] | EC50 [2] | EC50 (S1P4) |
| --- | --- | --- | --- |
| CCCCc1ccc(COc2ccc3c(c2)CC2(C3)CN(CC(=O)O)C2)c(Cl)c1 [Example 3, 2-(5′-((4-butyl-2-chlorobenzyl)oxy)-1′,3′-dihydrospiro[azetidine-3,2′-inden]-1-yl)acetic acid] | > 1 µM | 1 to 10 µM | < 1 µM |
| CCc1ccc(COc2ccc3c(c2)CC2(C3)CN(CC(=O)O)C2)c(Cl)c1 [Example 4, 2-(5′-((2-chloro-4-ethylbenzyl)oxy)-1′,3′-dihydrospiro[azetidine-3,2′-inden]-1-yl)acetic acid] | > 1 µM | 0.1 to 1 µM | < 1 µM |
| O=C(O)C1CC(N2CC3(Cc4ccc(OCC5CCCOC5)cc4C3)C2)C1 (stereo not shown) [Example 5, 3-(5′-((tetrahydro-2H-pyran-3-yl)methoxy)-1′,3′-dihydrospiro[azetidine-3,2′-inden]-1-yl)cyclobutanecarboxylic acid] | > 1 µM | 1 to 10 µM | > 1 µM |
| COc1cccc(F)c1COc1ccc2c(c1)CC1(C2)CN(CC(=O)O)C1 [Example 10, 2,2,2-trifluoroacetic acid compound with 2-(5′-((2-fluoro-6-methoxybenzyl)oxy)-1′,3′-dihydrospiro[azetidine-3,2′-inden]-1-yl)acetic acid (1:1)] | > 1 µM | 0.1 to 1 µM | < 1 µM |
| O=C(O)CN1CC2(Cc3ccc(OCc4ccccc4C(F)(F)F)cc3C2)C1 [Example 12, 2,2,2-trifluoroacetic acid compound with 2-(5′-((2-(trifluoromethyl)benzyl)oxy)-1′,3′-dihydrospiro[azetidine-3,2′-inden]-1-yl)acetic acid (1:1)] | > 1 µM | 0.01 to 0.1 µM | < 1 µM |
| O=C(O)CN1CC2(Cc3ccc(OCc4c(F)cccc4F)cc3C2)C1 [Example 13, 2,2,2-trifluoroacetic acid compound with 2-(5′-((2,6-difluorobenzyl)oxy)-1′,3′-dihydrospiro[azetidine-3,2′-inden]-1-yl)acetic acid (1:1)] | > 1 µM | 0.01 to 0.1 µM | < 1 µM |
| Cc1cccc(F)c1COc1ccc2c(c1)CC1(C2)CN(CC(=O)O)C1 [Example 17, 2,2,2-trifluoroacetic acid compound with 2-(5′-((2-fluoro-6-methylbenzyl)oxy)-1′,3′-dihydrospiro[azetidine-3,2′-inden]-1-yl)acetic acid (1:1)] | > 1 µM | ≤ 0.01 µM | < 1 µM |
| O=C(O)CN1CC2(Cc3ccc(OCc4c(F)cccc4Cl)cc3C2)C1 [Example 18, 2,2,2-trifluoroacetic acid compound with 2-(5′-((2-chloro-6-fluorobenzyl)oxy)-1′,3′-dihydrospiro[azetidine-3,2′-inden]-1-yl)acetic acid (1:1)] | > 1 µM | ≤ 0.01 µM | < 1 µM |
| O=C(O)CN1CC2(Cc3ccc(OCc4c(F)cccc4C(F)(F)F)cc3C2)C1 [Example 19, 2-(5′-((2-fluoro-6-(trifluoromethyl)benzyl)oxy)-1′,3′-dihydrospiro[azetidine-3,2′-inden]-1-yl)acetic acid] | > 1 µM | ≤ 0.01 µM | < 1 µM |
| O=C(O)CN1CC2(Cc3ccc(OCc4c(Cl)cccc4C(F)(F)F)cc3C2)C1 [Example 20, 2,2,2-trifluoroacetic acid compound with 2-(5′-((2-chloro-6-(trifluoromethyl)benzyl)oxy)-1′,3′-dihydrospiro[azetidine-3,2′-inden]-1-yl)acetic acid (1:1)] | > 1 µM | ≤ 0.01 µM | < 1 µM |
| CCc1cccc(F)c1COc1ccc2c(c1)CC1(C2)CN(CC(=O)O)C1 [Example 21, 2-(5′-((2-ethyl-6-fluorobenzyl)oxy)-1′,3′-dihydrospiro[azetidine-3,2′-inden]-1-yl)acetic acid] | > 1 µM | ≤ 0.01 µM | < 1 µM |
| O=C(O)CN1CC2(Cc3ccc(OCc4ccc(Br)cc4Cl)cc3C2)C1 [Example 22, 2-(5′-((4-bromo-2-chlorobenzyl)oxy)-1′,3′-dihydrospiro[azetidine-3,2′-inden]-1-yl)acetic acid] | > 1 µM | 0.01 to 0.1 µM | < 1 µM |
| O=C(O)CN1CC2(Cc3ccc(OCc4cc(F)ccc4C(F)(F)F)cc3C2)C1 [Example 27, 2-(5′-((5-fluoro-2-(trifluoromethyl)benzyl)oxy)-1′,3′-dihydrospiro[azetidine-3,2′-inden]-1-yl)acetic acid] | > 1 µM | ≤ 0.01 µM | < 1 µM |

The next lines start with the values.

| EC50 [1] | EC50 [2] | EC50 (S1P4) | SMILES |
| --- | --- | --- | --- |
| > 1 µM | ≤ 0.01 µM | < 1 µM | CC1CCC(C#Cc2ccc3c(c2)CC2(C3)CN(CC3(C(=O)O)CC3)C2)CC1 (mixture of isomers) [Example 115, 1-((5′-((4-methylcyclohexyl)ethynyl)-1′,3′-dihydrospiro[azetidine-3,2′-inden]-1-yl)methyl)cyclopropanecarboxylic acid] |
| – | 1 to 10 µM | – | CCOc1ccc(C#Cc2ccc3c(c2)CC2(C3)CN(CC3(C(=O)O)CC3)C2)cc1 [Example 1, 1-((5′-((4-ethoxyphenyl)ethynyl)-1′,3′-dihydrospiro[azetidine-3,2′-inden]-1-yl)methyl)cyclopropanecarboxylic acid compound with 2,2,2-trifluoroacetic acid (1:1)] |
| > 1 µM | 1 to 10 µM | < 1 µM | CCCc1ccc(COc2ccc3c(c2)CC2(C3)CN(CC3(C(=O)O)CC3)C2)c(OC)c1 [Example 2, 1-((5′-((2-methoxy-4-propylbenzyl)oxy)-1′,3′-dihydrospiro[azetidine-3,2′-inden]-1-yl)methyl)cyclopropanecarboxylic acid] |
| > 1 µM | 0.1 to 1 µM | > 1 µM | COc1cccc(Cl)c1COc1ccc2c(c1)CC1(C2)CN(CC(=O)O)C1 [Example 9, 2,2,2-trifluoroacetic acid compound with 2-(5′-((2-chloro-6-methoxybenzyl)oxy)-1′,3′-dihydrospiro[azetidine-3,2′-inden]-1-yl)acetic acid (1:1)] |
| > 1 µM | 1 to 10 µM | > 1 µM | COc1cccc(F)c1COc1ccc2c(c1)CC1(C2)CN(CC2(C(=O)O)CC2)C1 [Example 30, 1-((5′-((2-fluoro-6-methoxybenzyl)oxy)-1′,3′-dihydrospiro[azetidine-3,2′-inden]-1-yl)methyl)cyclopropanecarboxylic acid compound with 2,2,2-trifluoroacetic acid (1:1)] |
| > 1 µM | 0.1 to 1 µM | < 1 µM | COc1cccc(Cl)c1COc1ccc2c(c1)CC1(C2)CN(CC2(C(=O)O)CC2)C1 [Example 31, 1-((5′-((2-chloro-6-methoxybenzyl)oxy)-1′,3′-dihydrospiro[azetidine-3,2′-inden]-1-yl)methyl)cyclopropanecarboxylic acid compound with 2,2,2-trifluoroacetic acid (1:1)] |
